This is an account of results in patent US10153510B2, “Non-aqueous redox flow batteries including 3,7-perfluoroalkylated phenothiazine derivatives” (University of Kentucky Research Foundation, priority 2014, dated 2018).

≈ marks a conversion by molar mass, not a printed value. Where “and” joins values, the source holds several entries; their conditions need not be identical. Equal values may be shown once. Read-outs that look alike come from different tables or passages of the source.

Series [1] can be described thus: Stability rating of phenothiazine derivatives (Table 2 compilation). The format is physicochemical. The source says: (§1) Table 2 includes a compilation of data related to phenothiazine derivatives overcharge data of phenothiazine compounds as well as whether the compounds are practical for use in redox flow batteries. Some phenothiazine derivatives have solubility and stability sufficient for overcharge protection, they are not sufficiently soluble to be practical for redox flow applications. As exemplified in Table 2, EPT and DClEPT are practical for overcharge protection but are not practical for redox flow.
(§2) The data includes overcharge data at 100% overcharge for EPT, DBrEPT, DClEPT, BCF3EPT and DCNEPT from Ergun, et al. Chem. Comm., 2014, 50, 5339-5341. (30) Overcharge data at constant overcharge for EPT and BCF3EPT is derived from the studies described in Kaur et al., J. Materials Chemistry A, 2014, 2, 18190-18193. (29) Overcharge data at 100% overcharge for PT, MPT and EPT provided in Table 2 was derived from studies described in Narayana et al. ChemPhysChem, 2015, 16, 1179-1189. (32) Overcharge results for BCF3CF2EPT and BCF3(4-CF3C6H4)PT are provided in FIGS. 10 and 11, respectively.

Series [2] can be described thus: Maximum solubility of electro-active species in 0.2 M LiBF4 in PC. The format is physicochemical. As to conditions: organic solvent or mixture, thermodynamic from solid, room temperature. On the procedure:
(§3) Electrochemical experiments were performed in an argon-filled glovebox at room temperature. Cyclic voltammetry (CV) measurements were performed in a three-electrode cell with a 3 mm diameter glassy carbon working electrode, Pt wire counter electrode, and Li foil reference electrode; voltammograms were taken of 0.2 M LiBF4 in PC containing 5 mM analyte using a CH Instruments 605E potentiostat. For UV-vis spectra of neutral compounds, catholytes were dissolved at 0.2 mM or 5 mM in 0.2 M LiBF4 in PC in glovebox and were removed in special optical glass cuvettes (Starna) after sealing with Teflon caps. The solutions were subsequently monitored for 5 h on an Agilent 8453 diode-array spectrometer.
To study the behavior of the new catholyte BCF3EPT relative to DBBB, a set of batteries with the same concentration of electro-active species as the reported DBBB/TMeQ battery (0.05 M), as well as with the highest concentration possible for all three species, were identified for comparison. The maximum solubilities for DBBB, TMeQ and BCF3EPT in 0.2 M LiBF4 in PC were ca. 0.18 M, 0.37 M, and 1.2 M, respectively. […] Batteries were also fabricated at the highest concentration possible for BCF3EPT and TMeQ (0.35 M), beyond that which was possible for DBBB. By this measure, two sets of batteries were able to be tested at the same concentrations, including one near the limiting concentration of DBBB, and a third that allowed for analysis of a battery near the solubility limit of TMeQ.

A short description of series [3]: Cyclic voltammetry, half wave redox potentials. Format: physicochemical. The conditions noted are these: 20 mV/s; for Low potential event vs. Li+/0: 5 mM analyte in 0.2 M LiBF4 in PC; for High potential event vs. Li+/0: 5 mM in 0.2 M LiBF4 in PC, (a) irreversible oxidation potential estimated from forward wave and estimated reverse wave. On the procedure:
as §3
Cyclic voltammetry was used to characterize the electrochemical behavior of BCF3EPT and to characterize DBBB and TMeQ for comparison with reported data. The individual redox events for these electro-active materials can be used to estimate the open-circuit voltage (OCV) of an ORFB containing each catholyte-anolyte pair. LiBF4 (0.2M) was used in propylene carbonate (PC) for these experiments to allow for direct comparison with the previously reported DBBB/TMeQ battery. The voltammograms of BCF3EPT show a reversible first oxidation at a potential of 3.9 V vs. Li+/0, which corresponds to generation of the radical cation, followed by an irreversible second oxidation at ca. 4.4 V vs. Li+/0 (FIG. 2a) corresponding to formation of the dication. […] No peaks corresponding to the reduction of the neutral compounds was observed during the anodic scans of BC3EPT and DBBB in this electrolyte. […] The redox potentials of BCF3EPT and DBBB are similar, thus it is contemplated that they will give similar cell voltages when coupled with TMeQ in an ORFB.

Series [4] is described as follows: Solubility of phenothiazine derivatives (Table 2 compilation). The conditions noted are these: electrolyte not stated. The format is physicochemical.
From the text: as §1, §2

The conditions of series [5]: 1.2 M LiPF6 in EC/EMC; cited from earlier work.
A short description of series [6]: UV-vis stability of neutral and radical-cation forms (bulk electrolysis). Format: physicochemical. As to conditions: for stability of neutral compound by UV-vis: 0.2 mM and 5 mM in LiBF4/PC, over 5 h. The protocol:
as §3
Bulk electrolysis experiments were performed at 5 mM analyte in 0.2 M LiBF4 in PC with a Pt coiled-wire working electrode and a Li foil reference electrode, as well as a Pt wire counter electrode suspended in solution in a separate fitted glass tube. Electrolysis potentials were applied for 84 min in the glovebox, after which the solutions were diluted and removed from the glovebox in special optical glass cuvettes (Starna) sealed with Teflon caps. The solutions were subsequently monitored for 5 hours on an Agilent 8453 diode-array spectrometer.
Additionally, a compound that is stable in ambient conditions may be sensitive to electrolyte components, as was previously observed for a phenothiazine derivative with a tert-butyl group at the N position.(31) To compare the stability of the neutral and radical-cation forms of BCF3EPT to those of DBBB, UV-vis spectra were collected for both of the oxidation states of both compounds in LiBF4/PC. […] To simulate the charged species of each catholyte, the radical cation was generated by bulk electrolysis.

The mark [7] stands for this setting: organic solvent or mixture, read-out: Solubility.

For the compound `CCN1c2ccc(C#N)cc2Sc2cc(C#N)ccc21` [BCF3(4-CF3C6H4)PT], in series [1], the Stability entry is “High”.

In the case of `CCN1c2ccc(C(F)(F)C(F)(F)F)cc2Sc2cc(C(F)(F)C(F)(F)F)ccc21` [BCF3CF2EPT], in series [1], the Stability result is on record as “High”.

As to `CCN1c2ccc(C(F)(F)F)cc2Sc2cc(C(F)(F)F)ccc21` [BCF3EPT, 3,7-bis(trifluoromethyl)-N-ethylphenothiazine], the solubility at 1 h in series [2] was around 1200 mM (≈ 436 mg/mL). Moreover, in series [3], the “Low potential event vs. Li+/0” value was determined as 3.9 V. Besides, the Stability result in series [1] is “high”. The Solubility in series [4] (setting [7]) fell in the range of 1.5 to 2 M (≈ 545 to 727 mg/mL). Besides, the “stability relative to DDB” value in series [5] was “higher stability”. Besides, the “stability of neutral compound by UV-vis” value in series [6] is recorded as “neither compound showed measurable signs of change”. In series [6] (0.2 M LiBF4 in PC, 5 h period), the “stability of radical cation (UV-vis, comparison)” value is “significantly more stable”.

Consider `COCCOc1cc(C(C)(C)C)c(OCCOC)cc1C(C)(C)C` [DBBB, 2,5-di-tert-butyl-1,4-bis(2-methoxyethoxy)benzene], for which the solubility at 1 h in series [2] is around 180 mM (≈ 60.9 mg/mL). In series [3], the “Low potential event vs. Li+/0” value worked out at 4.0 V; the “High potential event vs. Li+/0” value is 4.7 V and 4.7^(a) V. In addition, the “stability of neutral compound by UV-vis” value in series [6] is “neither compound showed measurable signs of change”.

With `CCN1c2ccc(Br)cc2Sc2cc(Br)ccc21` [DBrEPT], the Stability entry in series [1] is reported as “high”. In series [4], this compound gave a Solubility of 0.1 M (≈ 38.5 mg/mL).

On to `CCN1c2ccc(C#N)cc2Sc2cc(C#N)ccc21` [DCNEPT], for which the Stability result in series [1] is “high”. Besides, the Solubility result in series [4] is listed as “low”.

`CCN1c2ccc(Cl)cc2Sc2cc(Cl)ccc21` [DClEPT]: in series [1], the Stability result is “High”. The Solubility in series [4] is 0.1 M (≈ 29.6 mg/mL).

`CCN1c2ccc([N+](=O)[O-])cc2Sc2cc([N+](=O)[O-])ccc21` [DNO2EPT]: the Solubility result in series [4] is given as “Low”.

In the case of `CCN1c2ccccc2Sc2ccccc21` [EPT], the Stability entry in series [1] is recorded as “High”. Moreover, the Solubility in series [4] (setting [7]) is 0.1 M (≈ 22.7 mg/mL).

Consider `CN1c2ccccc2Sc2ccccc21` [MPT], for which the Stability entry in series [1] is “high”. The compound further came in with a Solubility in series [4] of 0.1 M (≈ 21.3 mg/mL).

In the case of `c1ccc2c(c1)Nc1ccccc1S2` [PT], in series [1], the Stability entry is on record as “Low”. Besides, the Solubility in series [4] stood at 0.1 M (≈ 19.9 mg/mL).

On to `Cc1ccc2nc(C)c(C)nc2c1` [TMeQ, 2,3,6-trimethyl quinoxaline], for which, in series [2], the solubility at 1 h was around 370 mM (≈ 63.7 mg/mL). Further, in series [3], the “Low potential event vs. Li+/0” value is 2.5 V and the “High potential event vs. Li+/0” value is 2.8 V.

What is called solubility is the concentration that dissolves in the medium under given conditions. One may read the Solubility as the concentration that dissolves in the medium under given conditions.
